According to article PMC11243693, “Synthesis and Biological Evaluation of New Compounds with Nitroimidazole Moiety” (Molecules, 2024):
Converted amounts (≈) assume the structure as drawn.

Assays:
Type in all cases: cell-based
[1] = system: Staphylococcus aureus ATCC 25923; assay: Broth microdilution, S. aureus ATCC 25923; details: Sa 25923
Experimental: (§1) The antibacterial activity of the obtained thiosemicarbazides and hydrazide–hydrazones was determined by evaluating their ability to inhibit microbial growth in vitro using the broth microdilution method, according to the guidelines of the European Committee on Antimicrobial Susceptibility Testing (EUCAST). The method involved the preparation of microbial suspensions with a standardized density of 0.5 on the McFarland scale (equivalent to 1.5 × 10^8 colony-forming units/mL for bacteria and […] for fungi). A solution of the test substances was then prepared (initial concentration 1000 µg/mL, diluted in sterile Mueller-Hinton broth for bacteria or Mueller-Hinton with 2% glucose for fungi). The test was carried out in 96-well polystyrene flat-bottom plates (Medlab, Poland) with 100 µL of appropriate sterile microbiological medium in each well. The first wells were filled with 200 µL of the test substance, diluted to the initial concentration, and then double-decreasing dilutions were made under aseptic conditions using an automatic pipette. The final step was the addition of a 10-fold diluted microbial suspension of 2 µL. At the same time, the following controls were included: (a) medium control (100 µL of sterile medium without microorganisms added), (b) microbial viability control, (c) test substance control (dilutions without added micro-organisms), (d) positive control of the drug used in the clinic. The plates thus prepared were incubated for 18 ± 2 h at 35 ± 2 °C under conditions optimal for the growth of the test microorganisms. After incubation, the spectrophotometric absorbance at 570 nm in each well of the plate was read. The aim of this part of the study was to determine two parameters: the minimum inhibitory concentration (MIC) and the minimum bactericidal or fungicidal concentration (MBC/MFC) of the test compound. […] The MBC value was determined by adding 5 µL of the contents of each well of the plate to solid sterile MHA or MHA + 2%glc medium for bacteria and fungi, respectively. The area on the plate where 99.9% inhibition of microbial growth was observed indicated the lethal concentration. In addition, the quotient MBC(MFC)/MIC could be determined to assess the nature of the activity of the test substance. If MBC(MFC)/MIC was <4, the test substance was bactericidal/fungicidal, whereas if MBC(MFC)/MIC was ≥4, it was bacteriostatic/fungistatic. Amoxicillin (Glentham Life Sciences, USA) and nystatin (Glentham Life Sciences, USA) were used as the controls for this assay.
(§2) The test was performed either on bacteria, comprising: Gram-positive (Staphylococcus aureus ATCC 25923, Staphylococcus aureus ATCC 6538, Staphylococcus aureus ATCC 43300 methicillin-resistant MRSA, Staphylococcus epidermidis ATCC 12228, Micrococcus luteus ATCC 10240, Bacillus subtilis ATCC 6633, Bacillus cereus ATCC 10876) and Gram-negative (Escherichia coli ATCC 25922, Pseudomonas aeruginosa ATCC 27853, Proteus mirabilis ATCC 12453, Klebsiella pneumoniae ATCC 13883) or yeast (Candida parapsilosis ATCC 22019, Candida glabrata ATCC 90030, Candida krusei ATCC 14243, Candida glabrata ATCC 15126, Candida tropicalis ATCC 1369, Candida auris CDC B11903, Candida lusitaniae ATCC 3449) reference strains from the American Type Culture Collection (ATCC) or the Centers for Disease Control and Prevention (CDC).

[2] = system: Staphylococcus aureus ATCC 6538; assay: Broth microdilution, S. aureus ATCC 6538; details: Sa 6538
Experimental: as §1, §2

[3] = system: Staphylococcus aureus ATCC 43300 methicillin-resistant MRSA; assay: Broth microdilution, S. aureus ATCC 43300 MRSA; details: Sa 43300 MRSA
Experimental: as §1, §2

[4] = system: Staphylococcus epidermidis ATCC 12228; assay: Broth microdilution, S. epidermidis ATCC 12228; details: Se 12228; for MBC/MIC Ratio: <4 bactericidal, ≥4 bacteriostatic
Experimental: as §1, §2

[5] = system: Micrococcus luteus ATCC 10240; assay: Broth microdilution, M. luteus ATCC 10240; details: Ml 10240; for MBC/MIC Ratio: <4 bactericidal, ≥4 bacteriostatic
Experimental: as §1, §2

[6] = system: Bacillus subtilis ATCC 6633; assay: Broth microdilution, B. subtilis ATCC 6633; details: Bs 6633; for MBC/MIC Ratio: <4 bactericidal, ≥4 bacteriostatic
Experimental: as §1, §2

[7] = system: Bacillus cereus ATCC 10876; assay: Broth microdilution, B. cereus ATCC 10876; details: Bc 10876; for MBC/MIC Ratio: <4 bactericidal, ≥4 bacteriostatic
Experimental: as §1, §2

[8] = system: Candida parapsilosis ATCC 22019; assay: Broth microdilution, C. parapsilosis ATCC 22019; details: Cp 22019; for MFC/MIC Ratio: <4 fungicidal, ≥4 fungistatic
Experimental: as §1, §2

[9] = system: Candida glabrata ATCC 90030; assay: Broth microdilution, C. glabrata ATCC 90030; details: Cg 90030
Experimental: as §1, §2

[10] = system: Candida krusei ATCC 14243; assay: Broth microdilution, C. krusei ATCC 14243; details: Ck 14243
Experimental: as §1, §2

[11] = system: Candida glabrata ATCC 15126; assay: Broth microdilution, C. glabrata ATCC 15126; details: Cg 15126
Experimental: as §1, §2

[12] = system: Candida tropicalis ATCC 1369; assay: Broth microdilution, C. tropicalis ATCC 1369; details: Ct 1369; for MFC/MIC Ratio: <4 fungicidal, ≥4 fungistatic
Experimental: as §1, §2

Candida auris CDC B11903 = assay: Broth microdilution, C. auris CDC B11903; details: Ca B11903
Experimental: as §1, §2

[13] = system: Candida lusitaniae ATCC 3449; assay: Broth microdilution, C. lusitaniae ATCC 3449; details: Cl 3449
Experimental: as §1, §2

Candida spp. = assay: Broth microdilution, Candida spp.; details: for MBC (range, C. parapsilosis ATCC 22019 and C. tropicalis ATCC 1369) / MIC (range, C. parapsilosis ATCC 22019 and C. tropicalis ATCC 1369): range over both strains and the listed compounds
Experimental: as §1, §2

| MIC [1] [µg/mL] | MIC [2] [µg/mL] | MIC [3] [µg/mL] | MIC [4] [µg/mL] | MIC [5] [µg/mL] | MIC [6] [µg/mL] | MIC [7] [µg/mL] | MIC [8] [µg/mL] | MIC [9] [µg/mL] | MIC [10] [µg/mL] | MIC [11] [µg/mL] | MIC [12] [µg/mL] | MIC (Candida auris CDC B11903) [µg/mL] | SMILES | MBC [1] [µg/mL] | MBC [4] [µg/mL] | MBC [5] [µg/mL] | MBC [6] [µg/mL] | MBC/MIC Ratio [6] | MBC [7] [µg/mL] | MFC [8] [µg/mL] | other results |
| --- | --- | --- | --- | --- | --- | --- | --- | --- | --- | --- | --- | --- | --- | --- | --- | --- | --- | --- | --- | --- | --- |
| 500 (≈ 1430 µM) | 1000 (≈ 2850 µM) | 1000 (≈ 2850 µM) | 500 (≈ 1430 µM) | 500 (≈ 1430 µM) | 500 (≈ 1430 µM) | 1000 (≈ 2850 µM) | 500 (≈ 1430 µM) | >1000 | >1000 | >1000 | 500 (≈ 1430 µM) | >1000 | COc1ccccc1NC(=S)NNC(=O)c1nc([N+](=O)[O-])cn1C [Compound 9] | >1000 | >1000 | >1000 | 500 (≈ 1430 µM) | 1 | >1000 | 1000 (≈ 2850 µM) | MBC [2]: >1000 µg/mL; MBC [3]: >1000 µg/mL; MFC/MIC Ratio [8]: 2; MFC [12]: 1000 µg/mL (≈ 2850 µM); MFC/MIC Ratio [12]: 2; MIC [13]: >1000 µg/mL; MBC (range, C. parapsilosis ATCC 22019 and C. tropicalis ATCC 1369) (Candida spp.): 500 to 1000 µg/mL; MIC (range, C. parapsilosis ATCC 22019 and C. tropicalis ATCC 1369) (Candida spp.): 62.5 to 1000 µg/mL |
| 250 (≈ 644 µM) | 500 (≈ 1290 µM) | 1000 (≈ 2580 µM) | 500 (≈ 1290 µM) | 250 (≈ 644 µM) | 250 (≈ 644 µM) | 500 (≈ 1290 µM) | 125 (≈ 322 µM) | >1000 | >1000 | >1000 | 500 (≈ 1290 µM) | >1000 | Cn1cc([N+](=O)[O-])nc1C(=O)NNC(=S)Nc1ccccc1C(F)(F)F [Compound 12] | >1000 | 500 (≈ 1290 µM) | 500 (≈ 1290 µM) | 250 (≈ 644 µM) | 1 | 500 (≈ 1290 µM) | >1000 | MBC [2]: >1000 µg/mL; MBC [3]: >1000 µg/mL; MBC/MIC Ratio [4]: 1; MBC/MIC Ratio [5]: 2; MBC/MIC Ratio [7]: 1; MFC [12]: 1000 µg/mL (≈ 2580 µM); MFC/MIC Ratio [12]: 2; MIC [13]: >1000 µg/mL; MBC (range, C. parapsilosis ATCC 22019 and C. tropicalis ATCC 1369) (Candida spp.): 500 to 1000 µg/mL; MIC (range, C. parapsilosis ATCC 22019 and C. tropicalis ATCC 1369) (Candida spp.): 62.5 to 1000 µg/mL |
| 250 (≈ 714 µM) | 1000 (≈ 2850 µM) | 500 (≈ 1430 µM) | 500 (≈ 1430 µM) | 250 (≈ 714 µM) | 125 (≈ 357 µM) | 500 (≈ 1430 µM) | 250 (≈ 714 µM) | >1000 | >1000 | >1000 | 250 (≈ 714 µM) | >1000 | COc1cccc(NC(=S)NNC(=O)c2nc([N+](=O)[O-])cn2C)c1 [Compound 10] | >1000 | 500 (≈ 1430 µM) | 250 (≈ 714 µM) | 500 (≈ 1430 µM) | 4 | 1000 (≈ 2850 µM) | >1000 | MBC [2]: >1000 µg/mL; MBC [3]: >1000 µg/mL; MBC/MIC Ratio [4]: 1; MBC/MIC Ratio [5]: 1; MBC/MIC Ratio [7]: 2; MFC [12]: 1000 µg/mL (≈ 2850 µM); MFC/MIC Ratio [12]: 4; MIC [13]: >1000 µg/mL; antifungal activity towards tested Candida strains (Candida spp.; in words): fungistatic activity; MBC (range, C. parapsilosis ATCC 22019 and C. tropicalis ATCC 1369) (Candida spp.): 500 to 1000 µg/mL; MIC (range, C. parapsilosis ATCC 22019 and C. tropicalis ATCC 1369) (Candida spp.): 62.5 to 1000 µg/mL |
| 250 (≈ 705 µM) | 500 (≈ 1410 µM) | 1000 (≈ 2820 µM) | 250 (≈ 705 µM) | 250 (≈ 705 µM) | 125 (≈ 352 µM) | 1000 (≈ 2820 µM) | 250 (≈ 705 µM) | >1000 | >1000 | >1000 | 250 (≈ 705 µM) | >1000 | Cn1cc([N+](=O)[O-])nc1C(=O)NNC(=S)Nc1ccccc1Cl [Compound 3] | >1000 | 500 (≈ 1410 µM) | 250 (≈ 705 µM) | 125 (≈ 352 µM) | 1 | >1000 | >1000 | MBC [2]: >1000 µg/mL; MBC [3]: >1000 µg/mL; MBC/MIC Ratio [4]: 2; MBC/MIC Ratio [5]: 1; MFC [12]: 500 µg/mL (≈ 1410 µM); MFC/MIC Ratio [12]: 2; MIC [13]: >1000 µg/mL; MBC (range, C. parapsilosis ATCC 22019 and C. tropicalis ATCC 1369) (Candida spp.): 500 to 1000 µg/mL; MIC (range, C. parapsilosis ATCC 22019 and C. tropicalis ATCC 1369) (Candida spp.): 62.5 to 1000 µg/mL |
| 500 (≈ 1290 µM) | >1000 | >1000 | 1000 (≈ 2580 µM) | 500 (≈ 1290 µM) | 500 (≈ 1290 µM) | 1000 (≈ 2580 µM) | 500 (≈ 1290 µM) | >1000 | >1000 | >1000 | >1000 | >1000 | Cn1cc([N+](=O)[O-])nc1C(=O)NNC(=S)Nc1cccc(C(F)(F)F)c1 [Compound 13] | >1000 | >1000 | >1000 | 500 (≈ 1290 µM) | 1 | >1000 | 1000 (≈ 2580 µM) | MFC/MIC Ratio [8]: 2; MIC [13]: >1000 µg/mL; MBC (range, C. parapsilosis ATCC 22019 and C. tropicalis ATCC 1369) (Candida spp.): 500 to 1000 µg/mL; MIC (range, C. parapsilosis ATCC 22019 and C. tropicalis ATCC 1369) (Candida spp.): 62.5 to 1000 µg/mL |
| 62.5 (≈ 176 µM) | 250 (≈ 705 µM) | 500 (≈ 1410 µM) | 125 (≈ 352 µM) | 125 (≈ 352 µM) | 62.5 (≈ 176 µM) | 250 (≈ 705 µM) | 62.5 (≈ 176 µM) | >1000 | >1000 | >1000 | 250 (≈ 705 µM) | >1000 | Cn1cc([N+](=O)[O-])nc1C(=O)NNC(=S)Nc1cccc(Cl)c1 [Compound 4] | >1000 | 125 (≈ 352 µM) | 500 (≈ 1410 µM) | 62.5 (≈ 176 µM) | 1 | >1000 | >1000 | MBC [2]: >1000 µg/mL; MBC [3]: >1000 µg/mL; MBC/MIC Ratio [4]: 1; MBC/MIC Ratio [5]: 4; MFC [12]: 500 µg/mL (≈ 1410 µM); MFC/MIC Ratio [12]: 2; MIC [13]: >1000 µg/mL; MBC (range, C. parapsilosis ATCC 22019 and C. tropicalis ATCC 1369) (Candida spp.): 500 to 1000 µg/mL; MIC (range, C. parapsilosis ATCC 22019 and C. tropicalis ATCC 1369) (Candida spp.): 62.5 to 1000 µg/mL |
